In patent US20250179059A1 (The Regents of the University of California, priority 2021, published 2025) one finds IC50 data, which are given here for 36 compounds.

The structures appear in SMILES notation.

The test concerns the target T1, human BRD4 bromodomain II (Homo sapiens, UniProt O60885).
T1 construct: human BRD4 bromodomain II [based on Genbank NM_058243, residues 349-460]; host or cells: E. coli
The experiment in a line: Bromodomain binding assay (AlphaScreen), BRD4 BDII. Particulars: AlphaScreen assay, Table C2; read-out: BRD4 BDII IC50. The procedure, abridged: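 Inhibition of acetyl-H4 peptide binding to human BRD4 bromodomains is measured by bead-based proximity (AlphaScreen) in pH 7.5 HEPES buffer containing 0.05% CHAPS and 0.1% BSA. Ten compound concentrations in 3-fold steps give competitive binding IC50s.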
A general note: In Alpha technology, singlet oxygen from a donor bead excites a nearby acceptor bead.

For `CC(=O)Nc1ccc(-c2cccc(-c3ccc(NC(C)=O)c(Cl)c3)c2O)cc1F` [Example 46, N,N′-(3-Chloro-3″-fluoro-2′-hydroxy-[1,1′:3′,1″-terphenyl]-4,4″-diyl)diacetamide], the IC50 is > 100 nM.

Regarding `CC(=O)Nc1ccc(-c2cccc(-c3ccnc(N4CC(N)C4)c3)c2O)cc1F` [Example 232, N-(3′-(2-(3-aminoazetidin-1-yl)pyridin-4-yl)-3-fluoro-2′-hydroxy-[1,1′-biphenyl]-4-yl)acetamide], the IC50 was 10 to 100 nM.

Take `CC(=O)Nc1ccc(-c2cccc(-c3ccc4occc4c3)c2O)cc1F` [Example 119, N-(3′-(Benzofuran-5-yl)-3-fluoro-2′-hydroxy-[1,1′-biphenyl]-4-yl)acetamide]: the IC50 was > 100 nM.

In the case of `CC(=O)Nc1ccc(-c2cccc(-c3ccc(NC(C)=O)c(C#N)c3)c2O)cc1F` [Example 49, N,N′-(3-Cyano-3″-fluoro-2′-hydroxy-[1,1′:3′,1″-terphenyl]-4,4″-diyl)diacetamide], the IC50 was 10 to 100 nM.

As for `O=C1CCCN1c1c(F)cc(-c2cccc(-c3cc(N4CCNCC4)no3)c2O)cc1F` [Example 140, 1-(3,5-difluoro-2′-hydroxy-3′-(3-(piperazin-1-yl)isoxazol-5-yl)-[1,1′-biphenyl]-4-yl)pyrrolidin-2-one], the IC50 fell in the range of 10 to 100 nM.

`CC(=O)Nc1ccc(-c2cccc(-c3cccc(C(C)C)c3)c2O)cc1F` [Example 75, N-(3-Fluoro-2′-hydroxy-3″-isopropyl-[1,1′:3′,1″-terphenyl]-4-yl)acetamide]: the IC50 is > 100 nM.

As for `CC(=O)Nc1ccc(-c2cccc(-c3cnn(-c4ccccc4)c3)c2O)cc1F` [Example 35, N-(3-Fluoro-2′-hydroxy-3′-(1-phenyl-1H-pyrazol-4-yl)-[1,1′-biphenyl]-4-yl) acetamide], the IC50 was > 100 nM.

For `CC(=O)Nc1ccc(-c2cccc(-c3ccc(NC(C)=O)c(OC4CCC4)c3)c2O)cc1F` [Example 45, N,N′-(3-Cyclobutoxy-3″-fluoro-2′-hydroxy-[1,1′:3′,1″-terphenyl]-4,4″-diyl)diacetamide], the IC50 was > 100 nM.

Consider `CC(=O)Nc1ccc(-c2cccc(-c3cnn(C4CCNCC4)c3)c2O)cc1` [Example 15, N-(2′-Hydroxy-3′-(1-(piperidin-4-yl)-1H-pyrazol-4-yl)-[1,1′-biphenyl]-4-yl)acetamide], for which the IC50 is > 100 nM.

For `CC(=O)Nc1ccc(-c2cccc(-c3cccc(-c4c[nH]cn4)c3)c2O)cc1F` [Example 229, N-(3-fluoro-2′-hydroxy-3″-(1H-imidazol-4-yl)-[1,1′:3′,1″-terphenyl]-4-yl)acetamide], the IC50 was 10 to 100 nM.

`O=C1OCCN1c1ccc(-c2cccc(-c3cc(N4CCNCC4)no3)c2O)cc1` [Example 37, 3-(2′-Hydroxy-3′-(3-(piperazin-1-yl)isoxazol-5-yl)-[1,1′-biphenyl]-4-yl)oxazolidin-2-one 2,2,2-trifluoroacetate]: the IC50 was > 100 nM.

Turning to `CC(=O)Nc1ccc(-c2cccc(-c3cccc(N4CCC(N)C4)c3)c2O)cc1F` (stereo not drawn) [Example 177, N-(3″-(3-aminopyrrolidin-1-yl)-3-fluoro-2′-hydroxy-[1,1′:3′,1″-terphenyl]-4-yl)acetamide], the concentration for half-maximal inhibition (IC50) fell in the range of 10 to 100 nM.

As for `CC(=O)Nc1ccc(-c2cccc(-c3ccc(OC(C)C)cc3)c2O)cc1F` [Example 106, N-(3-Fluoro-2′-hydroxy-4″-isopropoxy-[1,1′:3′,1″-terphenyl]-4-yl)acetamide], the IC50 was > 100 nM.

As to `CC(=O)Nc1ccc(-c2cccc(-c3cnn(-c4ccccc4)c3)c2O)cc1` [Example 14, N-(2′-Hydroxy-3′-(1-phenyl-1H-pyrazol-4-yl)-[1,1′-biphenyl]-4-yl)acetamide], the 50% inhibitory concentration (IC50) is > 100 nM.

As for `CC(=O)Nc1ccc(-c2cccc(-c3cccc(N4CC5(CCNC5)CC4=O)c3)c2O)cc1F` (stereo not drawn) [Example 194, N-(3-fluoro-2′-hydroxy-3″-(3-oxo-2,7-diazaspiro[4.4]nonan-2-yl)-[1,1′:3′,1″-terphenyl]-4-yl)acetamide], the IC50 is 1 to 10 nM.

Consider `CC(=O)Nc1ccc(-c2cccc(-c3ccc(NC(C)=O)cc3)c2O)cc1` [Example 11, N,N′-(2′-hydroxy-[1,1′:3′,1″-terphenyl]-4,4″-diyl)diacetamide], for which the IC50 is > 100 nM.

For `CC(=O)Nc1ccc(-c2cccc(-c3ccnc(N)c3)c2O)cc1F` [Example 111, N-(3′-(2-Aminopyridin-4-yl)-3-fluoro-2′-hydroxy-[1,1′-biphenyl]-4-yl)acetamide], the IC50 fell in the range of 10 to 100 nM.

As for `CC(=O)Nc1ccc(-c2cccc(-c3cccc(N4CCC5(CCNCC5)CC4)c3)c2O)cc1F` [Example 195, N-(3-fluoro-2′-hydroxy-3″-(3.9-diazaspiro[5.5]undecan-3-yl)-[1,1′:3′,1″-terphenyl]-4-yl)acetamide], the IC50 lay within 10 to 100 nM.

For the compound `CNC(=O)Nc1ccc(-c2cccc(-c3cc(N4CCNCC4)no3)c2O)cc1` [Example 149, 1-(2′-hydroxy-3′-(3-(piperazin-1-yl)isoxazol-5-yl)-[1,1′-biphenyl]-4-yl)-3-methylurea], the IC50 is > 100 nM.

Turning to `CC(=O)Nc1ccc(-c2cccc(-c3cc(N4CCNCC4)[nH]n3)c2O)cc1F` [Example 162, N-(3-fluoro-2′-hydroxy-3′-(5-(piperazin-1-yl)-1H-pyrazol-3-yl)-[1,1′-biphenyl]-4-yl)acetamide ditrifluoroacetate], the IC50 was > 100 nM.

Turning to `CC(=O)Nc1ccc(-c2cc(F)cc(-c3ccc(F)c(C4=CCNCC4)c3)c2O)cc1F` [Example 247, N-(3,4″,5′-trifluoro-2′-hydroxy-3″-(1,2,3,6-tetrahydropyridin-4-yl)-[1,1′:3′,1″-terphenyl]-4-yl)acetamide], the IC50 was 1 to 10 nM.

For `CC(=O)Nc1ccc(-c2cccc(-c3ccnc(N4CCNCC4)c3)c2C(F)F)cc1F` [Example 250, N-(2′-(difluoromethyl)-3-fluoro-3′-(2-(piperazin-1-yl)pyridin-4-yl)-[1,1′-biphenyl]-4-yl)acetamide], the IC50 is > 100 nM.

As to `CC(=O)Nc1ccc(-c2cccc(-c3cnc4c(ccn4C)c3)c2O)cc1F` [Example 125, N-(3-Fluoro-2′-hydroxy-3′-(1-methyl-1H-pyrrolo[2,3-b]pyridin-5-yl)-[1,1′-biphenyl]-4-yl)acetamide], the IC50 is > 100 nM.

As for `CC(=O)Nc1ccc(-c2cccc(-c3cccc(C(F)(F)F)c3)c2O)cc1F` [Example 78, N-(3-Fluoro-2′-hydroxy-3″-(trifluoromethyl)-[1,1′:3′,1″-terphenyl]-4-yl)acetamide], the IC50 was > 100 nM.

In the case of `CC(=O)Nc1ccc(-c2cccc(-c3ccc4ocnc4c3)c2O)cc1F` [Example 122, N-(3′-(Benzo[d]oxazol-5-yl)-3-fluoro-2′-hydroxy-[1,1′-biphenyl]-4-yl)acetamide], the IC50 was > 100 nM.

`CC(=O)Nc1ccc(-c2cccc(-c3cccc(N4CCC5(CCNC5)CC4)c3)c2O)cc1F` [Example 192, N-(3-fluoro-2′-hydroxy-3″-(2,8-diazaspiro[4.5]decan-8-yl)-[1,1′:3′,1″-terphenyl]-4-yl)acetamide]: the IC50 was 10 to 100 nM.

Consider `CC(=O)Nc1ccc(-c2cccc(-c3cc(N4CCNCC4)cc(C(F)(F)F)c3)c2O)cc1F` [Example 215, N-(3-fluoro-2′-hydroxy-3″-(piperazin-1-yl)-5″-(trifluoromethyl)-[1,1′:3′,1″-terphenyl]-4-yl)acetamide], for which the IC50 is 1 to 10 nM.

For `CC(=O)Nc1ccc(-c2cccc(-c3ccc(NC(C)=O)c(C(F)(F)F)c3)c2O)cc1F` [Example 138, N,N′-(3-fluoro-2′-hydroxy-3″-(trifluoromethyl)-[1,1′:3′,1″-terphenyl]-4,4″-diyl)diacetamide], the IC50 was > 100 nM.

For `CC(=O)Nc1c(F)cc(-c2cccc(-c3cccc(N4CCNCC4)c3)c2O)cc1OC1CCC1` [Example 167, N-(3-cyclobutoxy-5-fluoro-2′-hydroxy-3″-(piperazin-1-yl)-[1,1′:3′,1″-terphenyl]-4-yl)acetamide], the IC50 lay within 1 to 10 nM.

With `CC(=O)Nc1ccc(-c2cccc(-c3ccnc(N4CC(O)C4)c3)c2O)cc1F` [Example 225, N-(3-fluoro-2′-hydroxy-3′-(2-(3-hydroxyazetidin-1-yl)pyridin-4-yl)-[1,1′-biphenyl]-4-yl)acetamide], the IC50 was > 100 nM.

As to `O=C1CCCN1c1ccc(-c2cccc(-c3ccccc3)c2O)cc1F` [Example 188, 1-(3-fluoro-2′-hydroxy-[1,1′:3′,1″-terphenyl]-4-yl)pyrrolidin-2-one], the IC50 is > 100 nM.

On to `CC(=O)Nc1ccc(-c2cccc(-c3ccc4c(c3)OCCCN4C(C)=O)c2O)cc1F` [Example 104, N-(3′-(5-Acetyl-2,3,4,5-tetrahydrobenzo[b][1,4]oxazepin-8-yl)-3-fluoro-2′-hydroxy-[1,1′-biphenyl]-4-yl)acetamide], for which the IC50 is > 100 nM.

For `CCc1ccc(-c2cccc(-c3ccc(NC(C)=O)c(F)c3)c2O)cc1` [Example 82, N-(4″-Ethyl-3-fluoro-2′-hydroxy-[1,1′:3′,1″-terphenyl]-4-yl)acetamide], the IC50 is > 100 nM.

For `CC(=O)N1CCC(=O)Nc2cc(-c3cccc(-c4cc(N5CCNCC5)no4)c3O)ccc21` [Example 29, 5-Acetyl-8-(2-hydroxy-3-(3-(piperazin-1-yl)isoxazol-5-yl)phenyl)-4,5-dihydro-1H-benzo[b][1,4]diazepin-2(3H)-one 2,2,2-trifluoroacetate], the IC50 was > 100 nM.

In the case of `CC(=O)Nc1ccc(-c2cccc(-c3ccc(C(C)C)cc3)c2O)cc1F` [Example 74, N-(3-Fluoro-2′-hydroxy-4″-isopropyl-[1,1′:3′,1″-terphenyl]-4-yl)acetamide], the IC50 is > 100 nM.

For `CC(=O)Nc1ccc(-c2cccc(-c3cccc(-c4ccc(N)nc4)c3)c2O)cc1F` [Example 202, N-(3″-(6-aminopyridin-3-yl)-3-fluoro-2′-hydroxy-[1,1′:3′,1″-terphenyl]-4-yl)acetamide], the IC50 is > 100 nM.

The IC50 is the concentration at which inhibition is half-maximal.
